Test results from PubChem BioAssay AID248 (DTP/NCI, 2004).
Values joined by “and” are separate entries in the source; they are usually repeats but may differ in a detail not shown here. Equal entries are not always repeated. Toxic doses and inconclusive results are not listed. No stated cut-off is given here; in the data, active means T/C of 150% or more; inactive means T/C below 125%.

System: L1210 leukemia ip in BDF1 mice, survival T/C
Assay: NCI In Vivo Anticancer Drug Screen. Data for tumor model L1210 Leukemia (intraperitoneal) in B6D2F1 (BDF1) mice
Conditions: higher = longer survival
Method in brief: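 Mice bearing the transplanted tumor received compound or vehicle. Survival of the treated group was divided by that of the vehicle-treated control group to give the ratio.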

[1] = endpoint: mean survival time, dose: 100.0 mg/kg/injection, schedule: Q01DX001 (ip), vehicle: carboxymethylcellulose (CMC)
[2] = endpoint: mean survival time, dose: 200.0 mg/kg/injection, schedule: Q01DX001 (ip), vehicle: carboxymethylcellulose (CMC)
[3] = endpoint: mean survival time, dose: 400.0 mg/kg/injection, schedule: Q01DX001 (ip), vehicle: carboxymethylcellulose (CMC)
[4] = endpoint: mean survival time, dose: 50.0 mg/kg/injection, schedule: Q04DX003 (ip), vehicle: Klucel (hydroxypropylcellulose) (HPC)
[5] = endpoint: mean survival time, dose: 100.0 mg/kg/injection, schedule: Q01DX009 (ip), vehicle: Klucel (hydroxypropylcellulose) (HPC)
[6] = endpoint: mean survival time, dose: 100.0 mg/kg/injection, schedule: Q04DX003 (ip), vehicle: Klucel (hydroxypropylcellulose) (HPC)
[7] = endpoint: mean survival time, dose: 100.0 mg/kg/injection, schedule: Q01DX001 (ip), vehicle: saline
[8] = endpoint: mean survival time, dose: 200.0 mg/kg/injection, schedule: Q01DX001 (ip), vehicle: saline
[9] = endpoint: mean survival time, dose: 400.0 mg/kg/injection, schedule: Q01DX001 (ip), vehicle: saline
[10] = endpoint: mean survival time, dose: 50.0 mg/kg/injection, schedule: Q01DX001 (ip), vehicle: saline
[11] = endpoint: mean survival time, dose: 100.0 mg/kg/injection, schedule: Q01DX009 (ip), vehicle: saline with Tween-80
[12] = endpoint: mean survival time, dose: 100.0 mg/kg/injection, schedule: Q04DX003 (ip), vehicle: saline with Tween-80
[13] = endpoint: mean survival time, dose: 200.0 mg/kg/injection, schedule: Q01DX009 (ip), vehicle: saline with Tween-80
[14] = endpoint: mean survival time, dose: 400.0 mg/kg/injection, schedule: Q01DX009 (ip), vehicle: saline with Tween-80

Measured: T/C

O=C(O)c1ccc2c(c1)C(=O)c1ccccc1-2
inactive: [1] 107 % of control | [2] 100 % of control | [3] 107 % of control

CCCCCCCCCCCCCCCCCC[n+]1cccc(C#N)c1
inactive: endpoint: mean survival time, dose: 5.0 mg/kg/injection, schedule: Q01DX009 (ip), vehicle: saline 98 % of control | endpoint: mean survival time, dose: 10.0 mg/kg/injection, schedule: Q01DX001 (ip), vehicle: saline 93 % of control | endpoint: mean survival time, dose: 10.0 mg/kg/injection, schedule: Q01DX009 (ip), vehicle: saline 92 % of control | endpoint: mean survival time, dose: 10.0 mg/kg/injection, schedule: Q04DX003 (ip), vehicle: saline 105 % of control | endpoint: mean survival time, dose: 20.0 mg/kg/injection, schedule: Q01DX001 (ip), vehicle: saline 91 % of control | endpoint: mean survival time, dose: 20.0 mg/kg/injection, schedule: Q04DX003 (ip), vehicle: saline 97 % of control | endpoint: mean survival time, dose: 40.0 mg/kg/injection, schedule: Q01DX001 (ip), vehicle: saline 91 % of control | endpoint: mean survival time, dose: 40.0 mg/kg/injection, schedule: Q04DX003 (ip), vehicle: saline 114 % of control

C/C(=N/N=C(/C)c1ccccc1)c1ccccc1
inactive: [4] 110 % of control | [5] 96 % of control | [6] 94 % of control | endpoint: mean survival time, dose: 200.0 mg/kg/injection, schedule: Q01DX009 (ip), vehicle: Klucel (hydroxypropylcellulose) (HPC) 100 % of control | endpoint: mean survival time, dose: 200.0 mg/kg/injection, schedule: Q04DX003 (ip), vehicle: Klucel (hydroxypropylcellulose) (HPC) 103 % of control | endpoint: mean survival time, dose: 400.0 mg/kg/injection, schedule: Q01DX009 (ip), vehicle: Klucel (hydroxypropylcellulose) (HPC) 96 % of control | endpoint: mean survival time, dose: 400.0 mg/kg/injection, schedule: Q04DX003 (ip), vehicle: Klucel (hydroxypropylcellulose) (HPC) 97 % of control

Nc1nc(N)c(N)c(=O)[nH]1
inactive: endpoint: mean survival time, dose: 25.0 mg/kg/injection, schedule: Q04DX003 (ip), vehicle: Klucel (hydroxypropylcellulose) (HPC) 103 % of control | [4] 100 % of control | endpoint: mean survival time, dose: 100.0 mg/kg/injection, schedule: Q01DX009 (ip), vehicle: saline 109 % of control | [6] 94 % of control and 100 % of control | endpoint: mean survival time, dose: 100.0 mg/kg/injection, schedule: Q04DX003 (ip), vehicle: saline 107 % of control | endpoint: mean survival time, dose: 200.0 mg/kg/injection, schedule: Q01DX009 (ip), vehicle: saline 101 % of control | endpoint: mean survival time, dose: 200.0 mg/kg/injection, schedule: Q04DX003 (ip), vehicle: saline 105 % of control | endpoint: mean survival time, dose: 400.0 mg/kg/injection, schedule: Q01DX009 (ip), vehicle: saline 101 % of control | endpoint: mean survival time, dose: 400.0 mg/kg/injection, schedule: Q04DX003 (ip), vehicle: saline 104 % of control

CNCC(=O)NC(CO)C(=O)NC1C(C(N)=O)OC(n2ccc(N)nc2=O)C(O)C1O (centres undefined)
inactive: endpoint: median survival time, dose: 0.75 mg/kg/injection, schedule: Q04DX003 (ip), vehicle: saline 96 % of control | endpoint: median survival time, dose: 1.5 mg/kg/injection, schedule: Q04DX003 (ip), vehicle: saline 101 % of control | endpoint: median survival time, dose: 3.0 mg/kg/injection, schedule: Q04DX003 (ip), vehicle: saline 94 % of control

NCCCCC(=O)NC(CCCCNC(=O)OCc1ccccc1)C(=O)NCCCCC(=O)NC(CCCCNC(=O)OCc1ccccc1)C(=O)NCCCCC(=O)NC(CCCCNC(=O)OCc1ccccc1)C(=O)NCCCCC(=O)NC(CCCCNC(=O)OCc1ccccc1)C(=O)NCCCCC(=O)NC(CCCCNC(=O)OCc1ccccc1)C(=O)O (centres undefined)
inactive: [7] 90 % of control

O=C(Nc1ccc(S(=O)(=O)c2ccc(NC(=O)C(F)(F)Cl)cc2)cc1)C(F)(F)Cl
inactive: [1] 104 % of control | [2] 101 % of control | [3] 103 % of control

O=C(Nc1ccc(Cl)c(Cl)c1)n1ncc2ccc([N+](=O)[O-])cc21
inactive: [7] 100 % of control | [8] 96 % of control | [9] 100 % of control

O=C(O)c1cc(Cl)ccn1
inactive: endpoint: mean survival time, dose: 25.0 mg/kg/injection, schedule: Q01DX009 (ip), vehicle: Klucel (hydroxypropylcellulose) (HPC) 98 % of control | endpoint: mean survival time, dose: 50.0 mg/kg/injection, schedule: Q01DX009 (ip), vehicle: Klucel (hydroxypropylcellulose) (HPC) 102 % of control | [5] 101 % of control and 107 % of control

Cc1ccc(C)c(N(c2ccccc2N)S(C)(=O)=O)c1
inactive: [10] 95 % of control | [7] 95 % of control | [8] 101 % of control | [9] 90 % of control

CCCC(C)C(=NC)Nc1ccc(Cl)c(Cl)c1 (centres undefined)
inactive: endpoint: mean survival time, dose: 11.1 mg/kg/injection, schedule: Q01DX Z (ip), vehicle: methylcellulose (MC) 91 % of control | endpoint: mean survival time, dose: 16.6 mg/kg/injection, schedule: Q01DX Z (ip), vehicle: methylcellulose (MC) 95 % of control

CC(=O)CC(=O)C(F)(F)F.CC(=O)CC(=O)C(F)(F)F.CC(=O)CC(=O)C(F)(F)F.[Rh]
inactive: [11] 97 % of control | [12] 97 % of control | [13] 100 % of control | endpoint: mean survival time, dose: 200.0 mg/kg/injection, schedule: Q04DX003 (ip), vehicle: saline with Tween-80 90 % of control | [14] 96 % of control | endpoint: mean survival time, dose: 400.0 mg/kg/injection, schedule: Q04DX003 (ip), vehicle: saline with Tween-80 92 % of control

O/N=C1/CCCC/C1=C/c1ccc(Cl)cc1
inactive: [11] 104 % of control | [13] 111 % of control | [14] 88 % of control

O=C(O)C(Br)CO (centres undefined) (tested in a mixture with another compound)
inactive: endpoint: mean survival time, dose: 100.0 mg/kg/injection, schedule: Q01DX001 (ip), vehicle: acetone 93 % of control | endpoint: mean survival time, dose: 200.0 mg/kg/injection, schedule: Q01DX001 (ip), vehicle: acetone 95 % of control

O=[N+]([O-])c1ccc(O)cc1
inactive: endpoint: mean survival time, dose: 12.5 mg/kg/injection, schedule: Q04DX003 (ip), vehicle: saline + alcohol 103 % of control | endpoint: mean survival time, dose: 25.0 mg/kg/injection, schedule: Q04DX003 (ip), vehicle: saline + alcohol 100 % of control | endpoint: mean survival time, dose: 50.0 mg/kg/injection, schedule: Q04DX003 (ip), vehicle: saline + alcohol 108 % of control | [7] 113 % of control | endpoint: mean survival time, dose: 100.0 mg/kg/injection, schedule: Q04DX002 (ip), vehicle: saline with Tween-80 102 % of control | [8] 101 % of control | endpoint: mean survival time, dose: 200.0 mg/kg/injection, schedule: Q04DX002 (ip), vehicle: saline with Tween-80 91 % of control

CC(=O)c1cn(C2CC(O)C(CO)O2)c(=O)[nH]c1=O (centres undefined)
inactive: [10] 117 % of control | endpoint: mean survival time, dose: 50.0 mg/kg/injection, schedule: Q04DX002 (ip), vehicle: saline 96 % of control | [7] 111 % of control | endpoint: mean survival time, dose: 100.0 mg/kg/injection, schedule: Q04DX002 (ip), vehicle: saline 105 % of control | [8] 105 % of control | endpoint: mean survival time, dose: 200.0 mg/kg/injection, schedule: Q04DX002 (ip), vehicle: saline 121 % of control

CC(=O)N1CCOC12CCN(Cc1ccccc1)CC2
inactive: endpoint: mean survival time, dose: 25.0 mg/kg/injection, schedule: Q01DX009 (ip), vehicle: saline with Tween-80 92 % of control | endpoint: mean survival time, dose: 50.0 mg/kg/injection, schedule: Q01DX009 (ip), vehicle: saline with Tween-80 98 % of control | [11] 88 % of control | [12] 100 % of control

Cc1ccc(-n2ccnc2)c(N=Cc2ccc(N(CCCl)CCCl)cc2F)c1
inactive: endpoint: mean survival time, dose: 100.0 mg/kg/injection, schedule: Q04DX002 (ip), vehicle: Klucel (hydroxypropylcellulose) (HPC) 98 % of control | endpoint: mean survival time, dose: 200.0 mg/kg/injection, schedule: Q04DX002 (ip), vehicle: Klucel (hydroxypropylcellulose) (HPC) 106 % of control | endpoint: mean survival time, dose: 400.0 mg/kg/injection, schedule: Q04DX002 (ip), vehicle: Klucel (hydroxypropylcellulose) (HPC) 106 % of control

O=C(Nc1ccc(C2=NCCN2)cc1)Nc1cc(NC(=O)Nc2ccc(C3=NCCN3)cc2)cc(C(=O)O)c1
inactive: endpoint: mean survival time, dose: 120.0 mg/kg/injection, schedule: Q01DX Z (ip), vehicle: carboxymethylcellulose (CMC) 106 % of control | endpoint: mean survival time, dose: 240.0 mg/kg/injection, schedule: Q01DX Z (ip), vehicle: carboxymethylcellulose (CMC) 102 % of control | endpoint: mean survival time, dose: 250.0 mg/kg/injection, schedule: Q01DX Z (ip), vehicle: water 93 % of control | endpoint: mean survival time, dose: 500.0 mg/kg/injection, schedule: Q01DX Z (ip), vehicle: water 94 % of control

CC(O)(c1ccccc1)c1ccccc1S(=O)(=O)Nc1ccccc1 (centres undefined)
inactive: [1] 101 % of control | [2] 93 % of control | [3] 95 % of control
